# Measurements as given in US20070254847A1, “Pharmaceutical Composition Containing Steroidal Saponins, the Preparation Method and Use Thereof” (priority 2004, published 2007).
# Marks after values point to notes of the source that are not given here.
# System: acute myocardial infarction in rats
# Test: Effect on acute myocardial infarction in rats (ligation of left anterior descending coronary artery)
# Type: in vivo, Wistar rats
# Procedure: Test 1 Effect of Pseudoprotogracillin (□) on Acute Myocardial Infarction in Rats:
# Pseudoprotogracillin (□) obtained in example 4 was applied in relevant pharmacological tests as follows:
# Wistar rats, each weighing 180˜220 g, were randomized into 3 groups, namely control group, pseudoprotogracillin group of high dose and pseudoprotogracillin group of low dose, each of which had 12 rats. The rats in the control group were administered by gastric infusion of distilled water. The other rats in test groups were administered by gastric infusion of the relevant medicinal liquid (prepared with distilled water), according to the high dose (3 mg/kg) or low dose (1.5 mg/kg) listed in following table for each group, respectively. Infusion was performed once a day and continued for one week. 1 hour after last administration, urethane of 1 g/kg was given to the rats for abdominal anesthesia. The animal was fixed on its back and its skin was cut open along the midline of its sternum, along the left edge of which an incision was made for the heart to be squzeezed out quickly. Ligation was immediately made at the root of the left anterior descending branch of its coronary artery before putting the heart back into its thorax, which was then closed by suture and spontaneous breathing was restored. The test was ended 3 hours after ligation and the heart was sliced transversely below the line of ligation. 5 slices were blue-stained with nitrotetrazolium and an multiple color pathological analyzer (MPIAS-500) was applied to measure the areas of normal myocardium and infarct myocardium at a fixed imaging distance and to observe the degree of myocardial infarction.
# [1] = High dose 3 mg/kg, gastric infusion once a day for one week, 3 hours after ligation, X ± s
# [2] = Low dose 1.5 mg/kg, gastric infusion once a day for one week, 3 hours after ligation, X ± s
substance,measurement,setting,value
"26-0-β-D-glucopyranosyl-3β, 26 glyco-25 (R)-Δ^5,20(22)-diene-furo-3-O-[α-L-Rhamnop yranosyl(1→2)]-[β-D-glucopyranosyl(1→3)]-β-D-glucopyranoside [pseudoprotogracillin (II)]",Percentage of infarct area to the heart,[1],20.74 ± 1.9 %
same,Percentage of infarct area to ventricle,[1],24.5 ± 2.6 %
same,Weight of infraction,[1],0.227 ± 0.032 g
same,Area of infraction,[2],91.3 ± 11.49* mm^2
same,Percentage of infarct area to the heart,[2],25.2 ± 2.3 %
same,Percentage of infarct area to ventricle,[2],28.1 ± 1.9 %
same,Weight of infraction,[2],0.241 ± 0.045 g
same,Action on myocardium (in words),high and low dose vs control group,obvious action to protect myocardium
